Source: PMC5218480 (PLoS ONE, 2017)

Test system: MV-4-11 cells
Assay: Gene expression microarray analysis (Affymetrix PrimeView) and GSEA
Type: cell-based, human
Design: RFU PODN (11730768_x_at) / Fold change /veh PODN (11730768_x_at) / RFU LINC00158 (11744669_a_at) / Fold change /veh LINC00158 (11744669_a_at) / RFU DUSP10 (11751237_a_at) / Fold change /veh DUSP10 (11751237_a_at) / RFU ID3 (11757404_x_at) / Fold change /veh ID3 (11757404_x_at) / RFU PLEKHG5 (11737974_s_at) / Fold change /veh PLEKHG5 (11737974_s_at) / RFU LRRC4B (11730491_at) / Fold change /veh LRRC4B (11730491_at) / RFU GIMAP4 (11747438_a_at) / Fold change /veh GIMAP4 (11747438_a_at) / RFU KRT8 (11758183_x_at) / Fold change /veh KRT8 (11758183_x_at) / RFU CNN1 (11734310_a_at) / Fold change /veh CNN1 (11734310_a_at) / RFU VPS37D (11726825_at) / Fold change /veh VPS37D (11726825_at) / RFU C10orf10 (11716522_x_at) / Fold change /veh C10orf10 (11716522_x_at) / RFU KIR2DL2 /// KIR2DL4 /// KIR2DL5A /// KIR2DL5B /// KIR2DS1 /// KIR2DS2 /// KIR2DS3 /// KIR2DS4 /// KIR3DL3 /// KIR3DL3 /// KIR3DS1 (11738374_at) / Fold change /veh KIR2DL2 /// KIR2DL4 /// KIR2DL5A /// KIR2DL5B /// KIR2DS1 /// KIR2DS2 /// KIR2DS3 /// KIR2DS4 /// KIR3DL3 /// KIR3DL3 /// KIR3DS1 (11738374_at) / RFU C1QL1 (11718748_at) / Fold change /veh C1QL1 (11718748_at) / RFU TMPRSS4 (11747572_a_at) / Fold change /veh TMPRSS4 (11747572_a_at) / RFU HAMP (11756126_x_at) / Fold change /veh HAMP (11756126_x_at) / RFU RNFT2 (11725882_a_at) / Fold change /veh RNFT2 (11725882_a_at) / RFU NR4A2 (11747474_a_at) / Fold change /veh NR4A2 (11747474_a_at) / RFU ABCC12 (11746883_a_at) / Fold change /veh ABCC12 (11746883_a_at) / RFU TMEM136 (11760407_x_at) / Fold change /veh TMEM136 (11760407_x_at) / RFU CLDN22 /// WWC2 (11732394_at) / Fold change /veh CLDN22 /// WWC2 (11732394_at) / RFU HLA-DPB1 (11760878_x_at) / Fold change /veh HLA-DPB1 (11760878_x_at) / RFU SPINT1 (11716480_a_at) / Fold change /veh SPINT1 (11716480_a_at) / RFU GAP43 (11754022_s_at) / Fold change /veh GAP43 (11754022_s_at) / RFU A4GNT (11735810_at) / Fold change /veh A4GNT (11735810_at) / RFU PRB3 (11715151_x_at) / Fold change /veh PRB3 (11715151_x_at) / RFU TUBB4B (11761932_at) / Fold change /veh TUBB4B (11761932_at) / RFU CAPN14 (11732068_a_at) / Fold change /veh CAPN14 (11732068_a_at) / RFU TMCC2 (11721928_a_at) / Fold change /veh TMCC2 (11721928_a_at) / RFU IRGQ (11745062_a_at) / Fold change /veh IRGQ (11745062_a_at) / RFU FAM174B (11720279_a_at) / Fold change /veh FAM174B (11720279_a_at) / RFU TMPRSS4 (11748680_a_at) / Fold change /veh TMPRSS4 (11748680_a_at) / RFU FAM212B (11763350_a_at) / Fold change /veh FAM212B (11763350_a_at) / RFU PLEKHG5 (11743358_a_at) / Fold change /veh PLEKHG5 (11743358_a_at) / RFU ZSCAN30 (11745921_a_at) / Fold change /veh ZSCAN30 (11745921_a_at) / RFU CMKLR1 (11741424_a_at) / Fold change /veh CMKLR1 (11741424_a_at) / RFU LOC101060620 /// MAPK8IP1 (11723275_at) / Fold change /veh LOC101060620 /// MAPK8IP1 (11723275_at) / RFU SPTSSB (11747773_x_at) / Fold change /veh SPTSSB (11747773_x_at) / RFU PRSS12 (11739890_at) / Fold change /veh PRSS12 (11739890_at) / RFU BIN1 (11741810_x_at) / Fold change /veh BIN1 (11741810_x_at) / RFU WNT11 (11732464_a_at) / Fold change /veh WNT11 (11732464_a_at) / RFU C10orf10 (11716521_a_at) / Fold change /veh C10orf10 (11716521_a_at) / RFU C5orf56 (11738089_at) / Fold change /veh C5orf56 (11738089_at) / RFU CYB561 (11721691_x_at) / Fold change /veh CYB561 (11721691_x_at) / RFU ANKRD19P (11752326_a_at) / Fold change /veh ANKRD19P (11752326_a_at) / RFU OR2T12 /// OR2T33 /// OR2T8 (11738714_s_at) / Fold change /veh OR2T12 /// OR2T33 /// OR2T8 (11738714_s_at) / RFU VCAN (11748164_a_at) / Fold change /veh VCAN (11748164_a_at) / RFU JSRP1 (11732532_at) / Fold change /veh JSRP1 (11732532_at) / RFU KRTAP10-11 (11738290_x_at) / Fold change /veh KRTAP10-11 (11738290_x_at) / RFU MYO3A (11730013_a_at) / Fold change /veh MYO3A (11730013_a_at) / RFU EBF3 (11725865_a_at) / Fold change /veh EBF3 (11725865_a_at) / RFU CAMK2N1 (11719241_x_at) / Fold change /veh CAMK2N1 (11719241_x_at) / RFU C5orf56 (11738088_a_at) / Fold change /veh C5orf56 (11738088_a_at) / RFU OLFML3 (11715873_a_at) / Fold change /veh OLFML3 (11715873_a_at) / RFU LOC100653217 /// NTM (11731650_a_at) / Fold change /veh LOC100653217 /// NTM (11731650_a_at) / RFU MAPK11 (11762145_a_at) / Fold change /veh MAPK11 (11762145_a_at) / RFU FIZ1 (11724087_x_at) / Fold change /veh FIZ1 (11724087_x_at) / RFU OASL (11726364_x_at) / Fold change /veh OASL (11726364_x_at) / RFU SOX15 (11748057_x_at) / Fold change /veh SOX15 (11748057_x_at) / RFU CD79A (11719716_a_at) / Fold change /veh CD79A (11719716_a_at) / RFU HIST1H1D (11736915_at) / Fold change /veh HIST1H1D (11736915_at) / RFU CASKIN2 (11723855_a_at) / Fold change /veh CASKIN2 (11723855_a_at) / RFU LOC730098 (11760151_x_at) / Fold change /veh LOC730098 (11760151_x_at) / RFU OR4N2 (11742367_at) / Fold change /veh OR4N2 (11742367_at) / RFU PRRT2 (11749266_a_at) / Fold change /veh PRRT2 (11749266_a_at) / RFU SNX32 (11753110_a_at) / Fold change /veh SNX32 (11753110_a_at) / RFU CDHR5 (11726645_a_at) / Fold change /veh CDHR5 (11726645_a_at) / RFU RCAN1 (11760418_a_at) / Fold change /veh RCAN1 (11760418_a_at) / RFU FAM167A (11723789_a_at) / Fold change /veh FAM167A (11723789_a_at) / RFU FAM26E (11764081_at) / Fold change /veh FAM26E (11764081_at) / RFU ISYNA1 (11749810_s_at) / Fold change /veh ISYNA1 (11749810_s_at) / RFU ACY1 (11761880_at) / Fold change /veh ACY1 (11761880_at) / RFU 11764098_at / Fold change /veh 11764098_at / RFU SAMD14 (11745864_x_at) / Fold change /veh SAMD14 (11745864_x_at) / RFU NPB (11741838_a_at) / Fold change /veh NPB (11741838_a_at) / RFU TMPRSS6 (11731388_a_at) / Fold change /veh TMPRSS6 (11731388_a_at) / RFU KRTAP10-2 (11738614_at) / Fold change /veh KRTAP10-2 (11738614_at) / RFU ARHGAP8 /// PRR5-ARHGAP8 (11727945_x_at) / Fold change /veh ARHGAP8 /// PRR5-ARHGAP8 (11727945_x_at) / RFU KRTAP5-7 /// NADSYN1 (11734609_at) / Fold change /veh KRTAP5-7 /// NADSYN1 (11734609_at) / RFU RASL12 (11751679_a_at) / Fold change /veh RASL12 (11751679_a_at) / RFU CDKN2B (11736163_a_at) / Fold change /veh CDKN2B (11736163_a_at) / RFU PRF1 (11729649_at) / Fold change /veh PRF1 (11729649_at) / RFU, ZNF638 /// ZNF638-IT1 / Fold change vs veh, ZNF638 /// ZNF638-IT1 / RFU, PANK3 / Fold change vs veh, PANK3 / RFU, SH3YL1 / Fold change vs veh, SH3YL1 / RFU, ZEB2 / Fold change vs veh, ZEB2 / RFU, NRIP1 / Fold change vs veh, NRIP1 / RFU, PTTG1IP / Fold change vs veh, PTTG1IP / RFU, CAPN2 / Fold change vs veh, CAPN2 / RFU, MED14 / Fold change vs veh, MED14 / RFU, SNORA58 / Fold change vs veh, SNORA58 / RFU, C1orf63 / Fold change vs veh, C1orf63 / RFU, LRRFIP1 / Fold change vs veh, LRRFIP1 / RFU, NDUFAF7 / Fold change vs veh, NDUFAF7 / RFU, SLC12A2 / Fold change vs veh, SLC12A2 / RFU, IBTK / Fold change vs veh, IBTK / RFU, ESF1 / Fold change vs veh, ESF1 / Fold change vs veh, TMEM50B / RFU, TAOK1 / Fold change vs veh, TAOK1 / RFU, ACBD3 / Fold change vs veh, ACBD3 / RFU, TMA16 / Fold change vs veh, TMA16 / RFU, RWDD3 / Fold change vs veh, RWDD3 / RFU, BCAT1 / Fold change vs veh, BCAT1 / RFU, EDEM3 / Fold change vs veh, EDEM3 / RFU, TMEM33 / Fold change vs veh, TMEM33 / RFU, WDR75 / Fold change vs veh, WDR75 / RFU, AHCTF1 / Fold change vs veh, AHCTF1 / RFU, TFRC / Fold change vs veh, TFRC / RFU, ZDHHC17 / Fold change vs veh, ZDHHC17 / RFU, NOM1 / Fold change vs veh, NOM1 / RFU, ARL8B / Fold change vs veh, ARL8B / RFU, ZBTB11 / Fold change vs veh, ZBTB11 / RFU, TAMM41 / Fold change vs veh, TAMM41 / RFU, KIAA1704 /// LOC100996395 / Fold change vs veh, KIAA1704 /// LOC100996395 / RFU, ING1 / Fold change vs veh, ING1 / RFU, TRMT61B / Fold change vs veh, TRMT61B / RFU, FUBP3 / Fold change vs veh, FUBP3 / RFU, TP53 / Fold change vs veh, TP53 / RFU, TNKS2 / Fold change vs veh, TNKS2 / RFU, ZFP14 / Fold change vs veh, ZFP14 / RFU, ACTR2 / Fold change vs veh, ACTR2 / RFU, PPP3R1 / Fold change vs veh, PPP3R1 / RFU, PIK3R1 / Fold change vs veh, PIK3R1 / RFU, HNRNPA1 / Fold change vs veh, HNRNPA1 / RFU, RNF170 / Fold change vs veh, RNF170 / RFU, ZNF28 / Fold change vs veh, ZNF28 / RFU, RNGTT / Fold change vs veh, RNGTT / RFU, OGT / Fold change vs veh, OGT / RFU, BRD1 / Fold change vs veh, BRD1 / RFU, MARS / Fold change vs veh, MARS / RFU, ZNF655 / Fold change vs veh, ZNF655 / RFU, FAHD1 / Fold change vs veh, FAHD1 / RFU, BDP1 / Fold change vs veh, BDP1 / RFU, LRRCC1 / Fold change vs veh, LRRCC1 / RFU, ARID1A / Fold change vs veh, ARID1A / RFU, ZNF146 / Fold change vs veh, ZNF146 / RFU, ZNF330 / Fold change vs veh, ZNF330 / RFU, GPN3 / Fold change vs veh, GPN3 / RFU, C9orf123 / Fold change vs veh, C9orf123 / RFU, N4BP2L2 / Fold change vs veh, N4BP2L2 / RFU, ARFIP1 / Fold change vs veh, ARFIP1 / RFU, FAM179B / Fold change vs veh, FAM179B / RFU, BCL10 / Fold change vs veh, BCL10 / RFU, UHRF1BP1L / Fold change vs veh, UHRF1BP1L / RFU, BET1 / Fold change vs veh, BET1 / RFU, CNOT2 / Fold change vs veh, CNOT2 / RFU, ZNF268 / Fold change vs veh, ZNF268 / Fold change vs veh, ZNF507 / RFU, DGCR2 / Fold change vs veh, DGCR2 / RFU, WDSUB1 / Fold change vs veh, WDSUB1 / Fold change vs veh, HSP90B1 /// MIR3652 / RFU, ADSS / Fold change vs veh, ADSS / RFU, GK / Fold change vs veh, GK / RFU, ZNF148 / Fold change vs veh, ZNF148 / RFU, TAF9 / Fold change vs veh, TAF9 / RFU, SLC1A5 / Fold change vs veh, SLC1A5 / RFU, SLMO2 / Fold change vs veh, SLMO2 / RFU, ABCC4 / Fold change vs veh, ABCC4 / RFU, LOC101060439 /// RAP1B / Fold change vs veh, LOC101060439 /// RAP1B / RFU, RFX7 / Fold change vs veh, RFX7 / RFU, GTPBP10 / Fold change vs veh, GTPBP10 / RFU, CNEP1R1 / Fold change vs veh, CNEP1R1 / RFU, BIVM-ERCC5 /// ERCC5 / Fold change vs veh, BIVM-ERCC5 /// ERCC5 / RFU, ILF3 / Fold change vs veh, ILF3 / RFU 11762660_at / Fold change /veh 11762660_at / RFU VCAN (11757783_s_at) / Fold change /veh VCAN (11757783_s_at) / RFU DDX43 (11728927_at) / Fold change /veh DDX43 (11728927_at) / RFU KRT8 (11758188_x_at) / Fold change /veh KRT8 (11758188_x_at) / RFU NKD1 (11759106_at) / Fold change /veh NKD1 (11759106_at) / RFU SRD5A1 (11742802_a_at) / Fold change /veh SRD5A1 (11742802_a_at) / RFU TPSAB1 /// TPSB2 (11721975_s_at) / Fold change /veh TPSAB1 /// TPSB2 (11721975_s_at) / RFU GSTM3 (11746129_a_at) / Fold change /veh GSTM3 (11746129_a_at) / RFU IL23R (11737362_x_at) / Fold change /veh IL23R (11737362_x_at) / RFU TMEM51 (11727254_a_at) / Fold change /veh TMEM51 (11727254_a_at) / RFU PIWIL2 (11732686_x_at) / Fold change /veh PIWIL2 (11732686_x_at) / RFU ORM1 (11744905_x_at) / Fold change /veh ORM1 (11744905_x_at) / RFU CCDC152 (11743942_at) / Fold change /veh CCDC152 (11743942_at) / RFU ECM1 (11717891_a_at) / Fold change /veh ECM1 (11717891_a_at) / RFU IL23R (11748794_a_at) / Fold change /veh IL23R (11748794_a_at) / RFU TNFAIP8L3 (11732012_x_at) / Fold change /veh TNFAIP8L3 (11732012_x_at) / RFU MBOAT4 (11741988_at) / Fold change /veh MBOAT4 (11741988_at) / RFU 11764193_at / Fold change /veh 11764193_at / RFU TMEM53 (11763286_at) / Fold change /veh TMEM53 (11763286_at) / RFU MAGEB2 (11727129_at) / Fold change /veh MAGEB2 (11727129_at) / RFU TMEM200A (11744735_a_at) / Fold change /veh TMEM200A (11744735_a_at) / RFU CCDC152 (11751479_a_at) / Fold change /veh CCDC152 (11751479_a_at) / RFU FAM211A (11726209_a_at) / Fold change /veh FAM211A (11726209_a_at) / RFU RGS16 (11746705_a_at) / Fold change /veh RGS16 (11746705_a_at) / RFU VCAN (11755009_s_at) / Fold change /veh VCAN (11755009_s_at) / RFU RHOB (11743442_s_at) / Fold change /veh RHOB (11743442_s_at) / RFU RGS16 (11720943_a_at) / Fold change /veh RGS16 (11720943_a_at) / RFU RGS16 (11720944_at) / Fold change /veh RGS16 (11720944_at) / RFU, VPS4B / Fold change vs veh, VPS4B / RFU, CREB1 / Fold change vs veh, CREB1 / RFU, DNAJC13 / Fold change vs veh, DNAJC13 / RFU, GNAQ / Fold change vs veh, GNAQ / RFU, CDK5R1 / Fold change vs veh, CDK5R1 / RFU, ZRANB3 / Fold change vs veh, ZRANB3 / RFU, CUL4A / Fold change vs veh, CUL4A / RFU, CCNY / Fold change vs veh, CCNY / RFU, UFL1 / Fold change vs veh, UFL1 / RFU, COG3 / Fold change vs veh, COG3 / RFU, DIAPH2 / Fold change vs veh, DIAPH2 / RFU, SKA2 / Fold change vs veh, SKA2 / RFU, AFF3 / Fold change vs veh, AFF3 / RFU, LMF1 / Fold change vs veh, LMF1 / RFU, IPO11 / Fold change vs veh, IPO11 / RFU, DFFB / Fold change vs veh, DFFB / RFU, FOXP1 / Fold change vs veh, FOXP1 / RFU, CARD8 / Fold change vs veh, CARD8 / RFU, STRN3 / Fold change vs veh, STRN3 / RFU, ADK / Fold change vs veh, ADK / RFU, RASSF2 / Fold change vs veh, RASSF2 / RFU, WIPF1 / Fold change vs veh, WIPF1 / RFU, LARP1B / Fold change vs veh, LARP1B / RFU, RASA1 / Fold change vs veh, RASA1 / RFU, RB1 / Fold change vs veh, RB1 / RFU, PPFIA1 / Fold change vs veh, PPFIA1 / RFU, MAT2A / Fold change vs veh, MAT2A / RFU, CCT5 / Fold change vs veh, CCT5 / RFU, WDR92 / Fold change vs veh, WDR92 / RFU, CUX1 / Fold change vs veh, CUX1 / RFU, TTC7A / Fold change vs veh, TTC7A / RFU, TMEM135 / Fold change vs veh, TMEM135 / RFU, DEPTOR / Fold change vs veh, DEPTOR / RFU, CPM / Fold change vs veh, CPM / RFU, DNAJB6 / Fold change vs veh, DNAJB6 / RFU, CACNA2D3 / Fold change vs veh, CACNA2D3 / RFU, DTX4 / Fold change vs veh, DTX4 / RFU, TFCP2 / Fold change vs veh, TFCP2 / RFU, GMCL1 /// GMCL1P1 / Fold change vs veh, GMCL1 /// GMCL1P1 / RFU, AEBP2 / Fold change vs veh, AEBP2 / RFU, SNHG1 /// SNORD22 /// SNORD25 /// SNORD26 /// SNORD27 /// SNORD28 /// SNORD29 /// SNORD31 / Fold change vs veh, SNHG1 /// SNORD22 /// SNORD25 /// SNORD26 /// SNORD27 /// SNORD28 /// SNORD29 /// SNORD31 / Fold change (Aza/veh), C12orf56 (ProbeSet 11735607_a_at) / Fold change (ACY-1035/veh), C12orf56 (ProbeSet 11735607_a_at) / Fold change (Aza/veh), FGFR1OP (ProbeSet 11751329_s_at) / Fold change (ACY-1035/veh), FGFR1OP (ProbeSet 11751329_s_at) / Fold change (Aza/veh), VPS36 (ProbeSet 11739960_a_at) / Fold change (ACY-1035/veh), VPS36 (ProbeSet 11739960_a_at) / RFU SYPL1 (11715823_x_at) / Fold change /veh SYPL1 (11715823_x_at) / RFU IGFBP7 (11715501_s_at) / Fold change /veh IGFBP7 (11715501_s_at) / RFU REEP3 (11722064_at) / Fold change /veh REEP3 (11722064_at) / RFU IGLL1 (11728026_x_at) / Fold change /veh IGLL1 (11728026_x_at): dose or concentration left out as unconfirmed
Conditions: ProbeSet 11755425_a_at; LIST B

## Nc1ccc(-c2cccs2)cc1NC(=O)c1ccc2c(c1)cc(C1CC1)n2CCN1CCOCC1 [ACY-1035]
  Fold change vs veh, FAM179B: 1.02
